According to publication PMC4113814, “Bioactive Cembrane Derivatives from the Indian Ocean Soft Coral, Sinularia kavarattiensis” (Marine Drugs, 2014):
Converted amounts (≈) assume the structure as drawn.

Key:
CHIKV replicon [1] = experiment: CHIKV replicon assay, Cell-IQ live cell imaging, EGFP fluorescence intensity; conditions: 48 h; for decrease in EGFP marker fluorescence intensity: 50 and 100 μM
CHIKV replicon [2] = experiment: microbe, parasite or virus in culture; conditions: Chikungunya virus; for inhibition at 100 µM: 48 h, read-out: inhibition of the CHIKV replicon (Rluc marker levels)
[3] = MTT cytotoxicity assay on primary microglial cell cultures; type: cell-based, Wistar rats; conditions: Wistar, rat, mean of triplicate
Procedure: (§1) Primary microglial cell cultures were prepared from brains of newborn Wistar rats. Ethics approval for the experiments was granted by the EBIOTEC Review Board (Valter Lombardi, Iván Carrera and Lucía Fernández-Novoa; Project Identification Code: Sinularia Project October 2013; approved 30 October 2013). The neocortex of one-day-old postnatal rats was aseptically dissected out, and the meninges and blood vessels were carefully removed. Following cutting in a medium containing 20% horse serum, the suspension was filtered through a […] and transferred as a single cell suspension to culture dishes, using 5.0 mL of medium per dish. The cultures were incubated at 37 °C in an atmosphere containing 5% CO2. The culture medium consisted of Minimum Essential Medium Eagle, supplemented with L-glutamine, amino acids, vitamins, penicillin, gentamicin, sodium bicarbonate and 20% heat-inactivated horse serum. The medium was changed twice a week. After 1 week, the concentration of horse serum was reduced to 10%. After sixteen days in culture, cells were treated with 1 μg/mL of lipopolysaccharide (LPS). After six hours, different concentrations (1.0 μg/mL, 2.5 μg/mL and 5.0 μg/mL) of Compounds 1–4 and 6 were added to each well, and plates were incubated for 72 h at 37 °C in an atmosphere containing 5% CO2. Positive controls were treated only with LPS, while negative controls were treated with complete medium. After 72 h of incubation, cells were counted, and 2.5 mL of the supernatants were collected from each well and frozen at −40 °C for cytokine analyses. All experiments were carried out twice.
(§2) The cytotoxicity of the compounds was measured by the colorimetric methyl thiazol tetrazolium (MTT) assay and scored as a percentage of the absorbance reduction of treated cultures versus untreated control cultures. Primary microglial cell cultures were seeded into 96-well microplates at 10^4 cells per well and allowed to grow for 24 h. The initial concentration of Compounds 1–4 and 6 was 100 μg/mL in DMSO. The compounds were serially diluted in complete culture medium with two-fold dilutions (100, 50, 25, 12.5, 6.25, 3.12 and 1.56 μg/mL for in vitro cytotoxicity; 12.5, 6.25, 3.12, 1.56, 0.78 and 0.39 μg/mL for cytokine release). Different concentrations of the compounds were added to each well, and Tamoxifen was used as a positive control, with concentrations ranging from 50 to 1.56 μg/mL. Plates were incubated at 37 °C for 72 h under 5% CO2 atmosphere. Then, the 50 μL of MTT-PBS solution in culture medium were added to each well. The plates were further incubated for 4 h under the same conditions. The medium was then removed and replaced with 200 μL of DMSO to solubilize the MTT formazan product. The solutions were shaken for 20 min, and the absorbance was measured at 570 nm. […] Each value represents the mean of triplicate determinations. The IC50 values were calculated from the compound concentration-response curves.

IL-1β = IL-1β release in supernatants of LPS-treated primary microglial cells (ELISA); type: cell-based, Wistar rats; conditions: 72 h; for IL-1β release: LPS-treated
Procedure: as §1, with “After six hours, different concentrations (1.0 μg/mL, 2.5 μg/mL and 5.0 μg/mL) of Compounds 1–4 and 6 were added to each well, and plates were incubated for 72 h at 37 °C in an atmosphere containing 5% CO2.” left out
(§3) The supernatants obtained from cell cultures were analyzed for TNF-α, IL-1β, IL-4, IL-6, IL-8, IL-10 and IL-18 using commercially available ELISA kits following the manufacturers’ instructions. All samples were assayed in duplicate, and equivocal results were repeated. The cytokine concentration was calculated from a standard curve of the corresponding recombinant cytokine.
as §2, with “The initial concentration of Compounds 1–4 and 6 was 100 μg/mL in DMSO.” left out

IL-18 = IL-18 release in supernatants of LPS-treated primary microglial cells (ELISA); type: cell-based, Wistar rats; conditions: 72 h; for IL-18 release: LPS-treated
Procedure: as §1, with “After six hours, different concentrations (1.0 μg/mL, 2.5 μg/mL and 5.0 μg/mL) of Compounds 1–4 and 6 were added to each well, and plates were incubated for 72 h at 37 °C in an atmosphere containing 5% CO2.” left out
as §3
as §2, with “[…] […]” for “The initial concentration of Compounds 1–4 and 6 was 100 μg/mL in DMSO. The compounds were serially diluted in complete culture medium with two-fold dilutions (100, 50, 25, 12.5, 6.25, 3.12 and 1.56 μg/mL for in vitro cytotoxicity; 12.5, 6.25, 3.12, 1.56, 0.78 and 0.39 μg/mL for cytokine release).”

IL-6 = IL-6 release in supernatants of LPS-treated primary microglial cells (ELISA); type: cell-based, Wistar rats; conditions: 72 h; for IL-6 release: LPS-treated
Procedure: as §1, with “After six hours, different concentrations (1.0 μg/mL, 2.5 μg/mL and 5.0 μg/mL) of Compounds 1–4 and 6 were added to each well, and plates were incubated for 72 h at 37 °C in an atmosphere containing 5% CO2.” left out
as §3
as §2, with “The initial concentration of Compounds 1–4 and 6 was 100 μg/mL in DMSO.” left out

IL-8 = IL-8 release in supernatants of LPS-treated primary microglial cells (ELISA); type: cell-based, Wistar rats; conditions: 72 h; for IL-8 release: LPS-treated
Procedure: as §1, with “After six hours, different concentrations (1.0 μg/mL, 2.5 μg/mL and 5.0 μg/mL) of Compounds 1–4 and 6 were added to each well, and plates were incubated for 72 h at 37 °C in an atmosphere containing 5% CO2.” left out
as §3
as §2, with “The initial concentration of Compounds 1–4 and 6 was 100 μg/mL in DMSO.” left out

TNF-α = TNF-α release in supernatants of LPS-treated primary microglial cells (ELISA); type: cell-based, Wistar rats; conditions: 72 h; for TNF-α release: LPS-treated
Procedure: as §1, with “After six hours, different concentrations (1.0 μg/mL, 2.5 μg/mL and 5.0 μg/mL) of Compounds 1–4 and 6 were added to each well, and plates were incubated for 72 h at 37 °C in an atmosphere containing 5% CO2.” left out
as §3
as §2, with “The initial concentration of Compounds 1–4 and 6 was 100 μg/mL in DMSO.” left out

IL-4 = IL-4 release in supernatants of LPS-treated primary microglial cells (ELISA); type: cell-based, Wistar rats; conditions: 72 h; for IL-4 release: LPS-treated
Procedure: as §1, with “After six hours, different concentrations (1.0 μg/mL, 2.5 μg/mL and 5.0 μg/mL) of Compounds 1–4 and 6 were added to each well, and plates were incubated for 72 h at 37 °C in an atmosphere containing 5% CO2.” left out
as §3
as §2, with “[…] […]” for “The initial concentration of Compounds 1–4 and 6 was 100 μg/mL in DMSO. The compounds were serially diluted in complete culture medium with two-fold dilutions (100, 50, 25, 12.5, 6.25, 3.12 and 1.56 μg/mL for in vitro cytotoxicity; 12.5, 6.25, 3.12, 1.56, 0.78 and 0.39 μg/mL for cytokine release).”

IL-10 = IL-10 release in supernatants of LPS-treated primary microglial cells (ELISA); type: cell-based, Wistar rats; conditions: 72 h; for IL-10 release: LPS-treated
Procedure: as §1, with “After six hours, different concentrations (1.0 μg/mL, 2.5 μg/mL and 5.0 μg/mL) of Compounds 1–4 and 6 were added to each well, and plates were incubated for 72 h at 37 °C in an atmosphere containing 5% CO2.” left out
as §3
as §2, with “The initial concentration of Compounds 1–4 and 6 was 100 μg/mL in DMSO.” left out

BHK-CHIKV-NCT cells [4] = experiment: Cell-IQ live cell imaging, cytotoxicity by cell classification (viable cells); conditions: 48 h, control compounds
BHK-CHIKV-NCT cells [5] = experiment: Cytotoxicity assay by ATP quantitation (CellTiter GLO)

C=C1/C=C/[C@H](C(C)C)CCC(=C)[C@H](O)CC1 [Compound 5, ent-germacra-4(15),5E,10(14)-trien-1β-ol]
decrease in EGFP marker fluorescence intensity (CHIKV replicon [1]): only moderate decreases | inhibition at 100 µM (CHIKV replicon [2]): 0.5 to 63%

C=C(C)C1CC(=O)C2C3C(=O)CC(C=C3C(C)=O)C(C(=O)O)C2C1 (stereo not drawn) [Compound 7, kavaranolide]
decrease in EGFP marker fluorescence intensity (CHIKV replicon [1]): only moderate decreases | inhibition at 100 µM (CHIKV replicon [2]): 0.5 to 63%

CC/C(=C(\c1ccccc1)c1ccc(OCCN(C)C)cc1)c1ccccc1 [Tamoxifen, reference compound]
IC50 at 72 h [3]: 3.6 µg/mL (≈ 9.69 µM)

C=C(C)[C@@H]1C/C=C(\C(=O)OC)CC(=O)C[C@]2(C)CC(=O)[C@H](CC(=O)C1)O2 [Compound 4]
IL-1β release (IL-1β; C1: 1.0 μg/mL): 1.01 ± 0.04 pg/mL | IL-1β release (IL-1β; C2: 2.5 μg/mL): 1.02 ± 0.04 pg/mL | IL-1β release (IL-1β; C3: 5.0 μg/mL): 1.01 ± 0.02 pg/mL | IC50 (IL-1β; Rattus norvegicus, read-out: IL-1β IC50): > 12.5 µg/mL | IL-18 release (IL-18; C2: 2.5 μg/mL): 312 ± 8.2 pg/mL | IL-18 release (IL-18; C3: 5.0 μg/mL): 312 ± 8.2 pg/mL | IC50 (IL-18; Rattus norvegicus, read-out: IL-18 IC50): > 12.5 µg/mL | IL-6 release (IL-6; C1: 1.0 μg/mL): 12.1 ± 1.3 pg/mL | IL-6 release (IL-6; C2: 2.5 μg/mL): 14.1 ± 1.1 pg/mL | IL-6 release (IL-6; C3: 5.0 μg/mL): 12.1 ± 1.3 pg/mL | IC50 (IL-6; Rattus norvegicus, read-out: IL-6 IC50): > 12.5 µg/mL | IL-8 release (IL-8; C2: 2.5 μg/mL): 247 ± 8 pg/mL | IL-8 release (IL-8; C3: 5.0 μg/mL): 247 ± 8 pg/mL | IC50 (IL-8; Rattus norvegicus, read-out: IL-8 IC50): > 12.5 µg/mL | TNF-α release (TNF-α; C1: 1.0 μg/mL): 33.2 ± 2.8 pg/mL | TNF-α release (TNF-α; C2: 2.5 μg/mL): 29.8 ± 2.5 pg/mL | TNF-α release (TNF-α; C3: 5.0 μg/mL): 32.5 ± 3.7 pg/mL | IC50 (TNF-α; Rattus norvegicus, read-out: TNF-α IC50): > 12.5 µg/mL | IC50 at 72 h [3]: > 100 µg/mL | IL-4 release (IL-4; C1: 1.0 μg/mL): 2.2 ± 0.2 pg/mL | IL-4 release (IL-4; C2: 2.5 μg/mL): 2.3 ± 0.5 pg/mL | IL-4 release (IL-4; C3: 5.0 μg/mL): 1.8 ± 0.2 pg/mL | IC50 (IL-4; Rattus norvegicus, read-out: IL-4 IC50): > 12.5 µg/mL | IL-10 release (IL-10; C1: 1.0 μg/mL): 8.4 ± 2.6 pg/mL | IL-10 release (IL-10; C2: 2.5 μg/mL): 7.9 ± 2.5 pg/mL | IL-10 release (IL-10; C3: 5.0 μg/mL): 7.8 ± 3.2 pg/mL | IC50 (IL-10; Rattus norvegicus, read-out: IL-10 IC50): > 12.5 µg/mL

O=c1cnn([C@@H]2O[C@H](CO)[C@@H](O)[C@H]2O)c(=O)[nH]1 [Compound 6-azauridine, 6-azauridine, reference compound]
effect of control compound on fluorescence intensity (CHIKV replicon [1]; control compounds): decreases the fluorescence intensity | effect of control compound on number of viable cells / cell morphology (BHK-CHIKV-NCT cells [4]): without affecting cell morphology | IC50 (CHIKV replicon [2]; read-out: IC50, inhibition of replicon (Rluc detection)): 2000 nM | inhibition at 10 µM (CHIKV replicon [2]; read-out: average inhibition (Rluc)): 69%

polymyxin B [reference compound]
average toxicity (BHK-CHIKV-NCT cells [5]; 10,000 IU/mL): 93% | ED50 for the cytotoxic activity (BHK-CHIKV-NCT cells [5]; positive control): 5900 IU/mL | effect of control compound on number of viable cells / cell morphology (BHK-CHIKV-NCT cells [4]): radically decreases
